Measurements taken from ChEMBL document CHEMBL1201862, “PubChem BioAssay data set” (2004).
Activity calls are given as the source filed them.

Assays:
[1] = system: HEK293; assay: inhibition of NOD1-driven NF-kB reporter – cell-based, luminescence, uHTS, primary screen (AID 1578); format: functional; conditions: Homo sapiens
[2] = system: HEK293; assay: cells; format: functional, cell-based; conditions: Homo sapiens
[3] = reduction of Shn3 3'UTR-driven luciferase in osteoblasts – cell-based, Clone20 osteoblasts, firefly luciferase, cherry-picked, dose response (AID 624132); format: functional;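 also: firefly luciferase luminescence from reporter carrying the Shn3 3'UTR in osteoblasts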
[4] = loss of viability in HepG2 cells – cell-based, CellTiter-Glo, cherry-picked, cytotoxicity control for Shn3 inhibitor project, dose response (AID 624134); format: functional
[5] = system: HEK293; assay: NOD2 signaling inhibitors in MDP-stimulated cells, cell-based, uHTS, luminescence (AID 2001); format: functional; conditions: Homo sapiens
[6] = system: HEK293; assay: cells; format: functional, cell-based; conditions: Homo sapiens; remark: listed apart in the source
[7] = system: HEK293; assay: cells; format: functional, cell-based; conditions: Homo sapiens; remark: listed apart in the source
[8] = target: T1, COUP transcription factor 2 (Homo sapiens, UniProt P24468); assay: Luminescence-based cell-based high throughput dose response assay to identify inhibitors of COUP-TFII (NR2F2).; format: functional;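 also: HEK293 cells transiently cotransfected with COUP-TFII expression vector and reporter; luciferase reporter luminescence driven by COUP-TFII from the pX2-168 reporter plasmid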
T1 sequence (P24468 whole entry): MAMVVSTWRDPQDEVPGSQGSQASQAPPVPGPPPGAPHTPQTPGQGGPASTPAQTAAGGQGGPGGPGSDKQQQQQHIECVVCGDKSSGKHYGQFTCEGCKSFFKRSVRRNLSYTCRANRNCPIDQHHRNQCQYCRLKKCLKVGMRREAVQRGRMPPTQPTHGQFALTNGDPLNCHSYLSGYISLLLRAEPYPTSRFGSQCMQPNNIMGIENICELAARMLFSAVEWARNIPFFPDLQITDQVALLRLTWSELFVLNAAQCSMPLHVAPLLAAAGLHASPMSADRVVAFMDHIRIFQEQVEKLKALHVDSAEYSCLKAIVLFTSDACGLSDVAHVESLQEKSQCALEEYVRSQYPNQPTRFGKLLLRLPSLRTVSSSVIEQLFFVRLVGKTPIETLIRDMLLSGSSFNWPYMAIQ

[9] = system: INS1; assay: INS-1E survival protection against cytokine death – cell-based, luminescence, retest, dose response (AID 449756); format: functional; conditions: Rattus norvegicus;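 also: cell death triggered by IL-1 beta plus TNF-alpha plus IFN-gamma mixture; protective hits raise ATP signal compared with cytokine alone wells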
[10] = Shn3 3'UTR reporter signal decrease – cell-based, Clone20 osteoblasts, firefly luciferase, cherry-pick, set 2, Schnurri-3 inhibitor project, dose response (AID 720490); format: functional;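 also: actives lower the luminescence signal as inhibitors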
[11] = target: Nucleotide-binding oligomerization domain-containing protein 2 (Homo sapiens, UniProt Q9HC29); assay: inhibition of NOD2-driven NF-kB reporter – cell-based, luminescence, uHTS, HEK293 (AID 1566); format: functional
[12] = target: T2, Sentrin-specific protease 6 (Homo sapiens, UniProt Q9GZR1); format: functional;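 also: Luminescence-based dose-response confirmatory assay of SENP6 inhibition, following up an ultra-high-throughput screen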
T2 sequence (Q9GZR1 whole entry): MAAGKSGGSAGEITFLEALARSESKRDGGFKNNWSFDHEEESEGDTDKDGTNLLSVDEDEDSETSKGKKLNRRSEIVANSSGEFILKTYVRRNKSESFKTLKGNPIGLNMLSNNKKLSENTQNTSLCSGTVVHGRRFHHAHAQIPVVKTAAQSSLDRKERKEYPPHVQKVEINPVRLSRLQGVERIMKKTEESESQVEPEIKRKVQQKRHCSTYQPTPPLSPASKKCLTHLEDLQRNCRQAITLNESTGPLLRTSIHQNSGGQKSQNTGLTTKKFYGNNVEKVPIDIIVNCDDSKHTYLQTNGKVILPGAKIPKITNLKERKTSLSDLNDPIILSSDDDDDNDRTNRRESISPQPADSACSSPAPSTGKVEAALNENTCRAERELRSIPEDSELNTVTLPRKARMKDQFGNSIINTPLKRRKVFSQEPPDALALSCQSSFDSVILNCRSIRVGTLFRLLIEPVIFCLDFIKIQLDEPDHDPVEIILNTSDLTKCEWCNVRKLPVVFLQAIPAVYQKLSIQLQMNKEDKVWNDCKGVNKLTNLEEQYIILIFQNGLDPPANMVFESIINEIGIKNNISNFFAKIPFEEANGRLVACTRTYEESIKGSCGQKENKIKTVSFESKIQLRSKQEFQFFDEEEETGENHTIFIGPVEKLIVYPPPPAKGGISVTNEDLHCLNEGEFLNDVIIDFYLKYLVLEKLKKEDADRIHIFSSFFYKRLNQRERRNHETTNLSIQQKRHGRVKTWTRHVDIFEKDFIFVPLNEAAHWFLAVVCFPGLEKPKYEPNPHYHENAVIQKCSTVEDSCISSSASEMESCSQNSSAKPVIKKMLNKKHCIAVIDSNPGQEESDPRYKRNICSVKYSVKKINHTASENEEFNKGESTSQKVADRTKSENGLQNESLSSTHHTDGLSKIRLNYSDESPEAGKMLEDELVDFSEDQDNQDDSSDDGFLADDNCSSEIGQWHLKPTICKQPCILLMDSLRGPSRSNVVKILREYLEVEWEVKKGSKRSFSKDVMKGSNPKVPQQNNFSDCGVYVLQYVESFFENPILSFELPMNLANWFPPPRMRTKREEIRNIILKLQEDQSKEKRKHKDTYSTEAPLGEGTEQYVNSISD

[13] = target: T3, Sentrin-specific protease 7 (Homo sapiens, UniProt Q9BQF6); format: functional;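 also: Luminescence-based dose-response confirmation of ultra-high-throughput screening hits, measuring inhibition of SENP7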
T3 sequence (Q9BQF6 whole entry): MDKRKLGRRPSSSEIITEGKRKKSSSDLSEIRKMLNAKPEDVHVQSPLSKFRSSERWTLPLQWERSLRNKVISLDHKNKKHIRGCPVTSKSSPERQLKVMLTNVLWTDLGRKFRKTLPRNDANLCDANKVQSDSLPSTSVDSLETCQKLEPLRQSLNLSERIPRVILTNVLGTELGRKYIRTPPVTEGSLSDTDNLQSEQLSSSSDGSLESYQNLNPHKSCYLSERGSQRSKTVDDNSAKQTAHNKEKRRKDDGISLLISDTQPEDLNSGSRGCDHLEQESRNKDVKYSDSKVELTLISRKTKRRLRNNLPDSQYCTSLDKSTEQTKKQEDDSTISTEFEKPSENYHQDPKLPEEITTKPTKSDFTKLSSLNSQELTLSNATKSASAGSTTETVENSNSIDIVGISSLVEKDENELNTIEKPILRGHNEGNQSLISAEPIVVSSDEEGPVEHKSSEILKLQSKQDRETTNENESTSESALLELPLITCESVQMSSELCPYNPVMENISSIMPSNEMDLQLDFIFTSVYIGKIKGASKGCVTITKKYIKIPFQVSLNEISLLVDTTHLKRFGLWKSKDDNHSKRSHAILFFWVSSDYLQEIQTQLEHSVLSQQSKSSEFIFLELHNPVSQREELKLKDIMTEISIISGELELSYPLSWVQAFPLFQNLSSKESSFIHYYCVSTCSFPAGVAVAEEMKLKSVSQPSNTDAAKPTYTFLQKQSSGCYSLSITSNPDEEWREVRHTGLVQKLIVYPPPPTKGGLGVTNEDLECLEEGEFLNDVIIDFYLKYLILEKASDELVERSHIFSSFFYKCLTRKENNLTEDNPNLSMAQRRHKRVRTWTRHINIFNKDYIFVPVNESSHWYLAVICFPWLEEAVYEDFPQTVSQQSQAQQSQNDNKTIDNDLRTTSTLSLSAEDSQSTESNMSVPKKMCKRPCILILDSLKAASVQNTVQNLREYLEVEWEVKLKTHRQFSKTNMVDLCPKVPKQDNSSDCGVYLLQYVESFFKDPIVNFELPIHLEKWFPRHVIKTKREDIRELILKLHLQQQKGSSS

[14] = target: T4, Sentrin-specific protease 8 (Homo sapiens, UniProt Q96LD8); format: functional;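 also: luminescence read-out of SENP8 inhibition, dose-response confirmation following an ultra-high-throughput screen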
T4 sequence (Q96LD8 whole entry): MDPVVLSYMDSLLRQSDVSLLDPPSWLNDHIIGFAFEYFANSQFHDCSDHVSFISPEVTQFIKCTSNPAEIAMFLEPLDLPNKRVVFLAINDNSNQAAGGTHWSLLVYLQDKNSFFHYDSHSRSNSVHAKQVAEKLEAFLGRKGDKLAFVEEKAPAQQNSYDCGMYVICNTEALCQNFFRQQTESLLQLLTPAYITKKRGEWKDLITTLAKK

[15] = target: T5, Caspase-3 (Homo sapiens, UniProt P42574); format: functional;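 also: Dose-response selectivity test against caspase-3 for candidate inhibitors of sentrin-specific proteases (SENPs)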
T5 sequence (P42574 whole entry): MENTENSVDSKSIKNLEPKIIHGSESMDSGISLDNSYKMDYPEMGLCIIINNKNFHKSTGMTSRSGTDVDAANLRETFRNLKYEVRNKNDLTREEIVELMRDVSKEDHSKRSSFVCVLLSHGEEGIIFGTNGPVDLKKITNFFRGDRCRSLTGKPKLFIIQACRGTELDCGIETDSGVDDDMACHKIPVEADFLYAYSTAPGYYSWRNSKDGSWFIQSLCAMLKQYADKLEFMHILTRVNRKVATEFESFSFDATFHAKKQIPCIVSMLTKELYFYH

[16] = target: Hexokinase (Trypanosoma brucei, UniProt Q38C41); assay: Confirmation assay for inhibitors of Trypanosoma brucei hexokinase 1-Analogue-first series. [Related pubchem assays (depositor defined):AID1430, AID1632, AID2516, AID2560, AID2579, AID2600, AID449725, AID492951]; format: functional
Sequence of Hexokinase (Q38C41 whole entry): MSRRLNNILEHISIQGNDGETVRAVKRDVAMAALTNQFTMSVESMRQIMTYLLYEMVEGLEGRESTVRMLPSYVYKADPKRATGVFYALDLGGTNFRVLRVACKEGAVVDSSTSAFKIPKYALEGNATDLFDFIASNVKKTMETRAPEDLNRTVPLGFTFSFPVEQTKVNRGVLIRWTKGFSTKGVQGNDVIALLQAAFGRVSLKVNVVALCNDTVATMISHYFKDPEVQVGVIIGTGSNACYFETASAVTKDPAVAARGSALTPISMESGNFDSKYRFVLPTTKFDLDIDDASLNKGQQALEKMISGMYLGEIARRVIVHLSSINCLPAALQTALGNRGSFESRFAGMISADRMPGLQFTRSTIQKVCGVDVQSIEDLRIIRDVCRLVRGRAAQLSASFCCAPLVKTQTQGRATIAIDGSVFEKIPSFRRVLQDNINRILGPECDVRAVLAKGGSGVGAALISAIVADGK

Sequence of Nucleotide-binding oligomerization domain-containing protein 2 (Q9HC29 whole entry, the tested form may be a part): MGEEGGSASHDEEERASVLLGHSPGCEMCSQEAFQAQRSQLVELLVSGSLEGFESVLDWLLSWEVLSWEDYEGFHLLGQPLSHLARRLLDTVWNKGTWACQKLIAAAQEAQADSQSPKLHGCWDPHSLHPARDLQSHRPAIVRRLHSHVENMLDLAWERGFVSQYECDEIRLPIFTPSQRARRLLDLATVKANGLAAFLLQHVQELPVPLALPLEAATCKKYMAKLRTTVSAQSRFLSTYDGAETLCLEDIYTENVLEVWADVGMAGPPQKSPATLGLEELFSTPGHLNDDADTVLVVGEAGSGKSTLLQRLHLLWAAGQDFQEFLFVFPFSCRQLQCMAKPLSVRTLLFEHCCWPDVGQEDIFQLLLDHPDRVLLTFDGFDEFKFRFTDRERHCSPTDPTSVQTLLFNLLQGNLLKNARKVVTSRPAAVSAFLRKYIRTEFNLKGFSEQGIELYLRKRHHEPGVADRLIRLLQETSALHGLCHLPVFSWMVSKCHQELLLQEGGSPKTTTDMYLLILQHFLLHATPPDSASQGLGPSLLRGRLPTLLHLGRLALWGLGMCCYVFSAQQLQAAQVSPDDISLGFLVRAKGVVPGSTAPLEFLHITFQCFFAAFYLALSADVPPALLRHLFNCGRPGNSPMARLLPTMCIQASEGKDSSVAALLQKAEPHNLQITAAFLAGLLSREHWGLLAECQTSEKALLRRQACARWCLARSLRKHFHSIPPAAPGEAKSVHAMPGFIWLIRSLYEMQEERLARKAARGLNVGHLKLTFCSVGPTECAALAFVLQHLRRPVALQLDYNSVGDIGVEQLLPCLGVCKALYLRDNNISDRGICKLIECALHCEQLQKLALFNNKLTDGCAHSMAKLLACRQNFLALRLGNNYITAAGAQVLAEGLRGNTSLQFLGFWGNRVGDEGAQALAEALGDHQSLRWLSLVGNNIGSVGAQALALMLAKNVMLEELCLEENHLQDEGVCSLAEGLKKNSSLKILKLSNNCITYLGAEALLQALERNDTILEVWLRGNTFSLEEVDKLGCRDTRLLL

Compound	EC50 [1]	IC50 [2]	AC50 [3]	AC50 [4]	IC50 [5]	IC50 [6]	IC50 [7]	IC50 [8]	AC50 [9]	AC50 [10]	EC50 [11]	IC50 [12]	IC50 [13]	IC50 [14]	IC50 [15]	IC50 [16]
Cc1cc(S(=O)(=O)NCc2ccncc2)c(C)cc1Br	4.2 µM (active)	> 20 µM (inactive)	1.23 µM (active)	41.1 µM (active)	17.9 µM (inactive)	9.24 µM (active)	> 20 µM (inactive)	6.41 µM (active)	4.42 µM (active)	1.02 µM (active)	5.82 µM (active)					
COc1ccc(-c2cc3ccccc3[nH]2)cc1												34.5 µM (active)	18.2 µM (active)	45.2 µM (active)	14.1 µM (active)	> 25 µM (inactive)
